Consider 2 compounds from ChEMBL document CHEMBL4346764, “Design, synthesis, and evaluation of N-(4-(4-phenyl piperazin-1-yl)butyl)-4-(thiophen-3-yl)benzamides as selective dopamine D3 receptor ligands” (Bioorg Med Chem Lett, 2019).

Broadly, the AUC is the area under the concentration-time curve, a measure of exposure. A higher AUC goes with high exposure.

The nature of data set [1]: Volume of distribution at steady state in Sprague-Dawley rat at 1 mg/kg, iv by LC/MS/MS analysis. It counts as ADME, organism-based. The settings on record: in vivo, read-out: Vdss.
A short description of data set [2]: AUC in Sprague-Dawley rat at 1 mg/kg, iv by LC/MS/MS analysis. It counts as ADME, organism-based. The settings on record: in vivo.

`N#Cc1cccc(N2CCN(CCCCNC(=O)c3ccc(-c4ccsc4)cc3)CC2)c1`: in data set [1], the Vd was found to be 28.6 L/kg. In data set [2], the AUC came out at 220 ng·h/mL.
For `O=C(NCCCCN1CCN(c2cc(Cl)cc(Cl)c2)CC1)c1ccc(-c2ccsc2)cc1`, the Vd in data set [1] is 55.7 L/kg. In data set [2], the AUC was 210 ng·h/mL.
